Measured values: patent US20210355104A1, “ADENOSINE RECEPTOR BINDING COMPOUNDS” (Nikang Therapeuticsm Inc., priority 2018, published 2021)
Values joined by “and” are separate entries in the source; they are usually repeats but may differ in a detail not shown here. Equal values may be shown once. Read-outs that look alike come from different tables or passages of the source.

Key:
[1] = test system: p-CREB (phosphorylated cAMP response-element binding protein) in human whole blood; assay: p-CREB assay in human whole blood by flow cytometry (NECA stimulation, CD4 staining); type: cell-based
In short: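 Fresh human whole blood preincubated 1 h at room temperature with compounds (11-point 1:3 series from 30 uM) plus adenosine deaminase, then stimulated 30 min with NECA and Rolipram (10× additions of 50 uM stocks). Cells lysed/fixed, permeabilised, stained for p-CREB and CD4, read by flow cytometry.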

Adenosine A2A receptor = Adenosine A2A receptor (Homo sapiens, UniProt P29274); assay: cAMP assay in 293A cells stably expressing the adenosine A2A receptor (CGS21680 stimulation, HTRF); type: cell-based; set-up: expressed in transfected cells; host or cells: 293A cells (Invitrogen, Cat# R705-07) infected with A2A-expressing lentivirus (custom packaged by Biosettia), puromycin selected; settings: 0.1% BSA
Adenosine A2A receptor, sequence (P29274 whole entry): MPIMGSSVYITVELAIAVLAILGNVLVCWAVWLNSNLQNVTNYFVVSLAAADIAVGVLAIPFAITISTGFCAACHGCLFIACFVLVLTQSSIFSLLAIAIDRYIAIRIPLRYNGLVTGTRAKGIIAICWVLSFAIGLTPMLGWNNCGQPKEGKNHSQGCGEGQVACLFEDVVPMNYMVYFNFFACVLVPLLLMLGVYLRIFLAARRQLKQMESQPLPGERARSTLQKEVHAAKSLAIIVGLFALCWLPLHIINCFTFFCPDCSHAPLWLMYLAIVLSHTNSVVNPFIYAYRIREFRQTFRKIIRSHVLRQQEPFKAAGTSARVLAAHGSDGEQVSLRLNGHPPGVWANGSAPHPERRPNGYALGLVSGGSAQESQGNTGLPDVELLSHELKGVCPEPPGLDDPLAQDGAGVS

[2] = 293A-A2AR cells, 1 uM CGS, read-out: cAMP (nM) 0.1% BSA, 1 uM CGS
[3] = Homo sapiens, replicate values separated by /
[4] = 293A cells stably expressing A2A receptor, 1 uM CGS21680 stimulation, replicate values separated by /, read-out: cAMP (nM) 0.1% BSA, 1 uM CGS

`CNC(C)(C)c1cccc(COc2nc(N)nc(-c3ccc(F)cc3)c2-c2cc(C)nc(C(F)F)c2)n1` [Example 389, 5-(2-(difluoromethyl)-6-methylpyridin-4-yl)-4-(4-fluorophenyl)-6-((6-(2-(methylamino)propan-2-yl)pyridin-2-yl)methoxy)pyrimidin-2-amine] was tested, and the IC50 ([1]; Homo sapiens) was 60 nM and the IC50 (Adenosine A2A receptor; [2]) was 231 nM and 114 nM and 100 nM.

In the case of `CNCc1cccc(COc2nc(N)nc(-c3ccc(F)cc3)c2-c2cc(C)nc(C(F)F)c2)n1` [Example 403, 5-(2-(difluoromethyl)-6-methylpyridin-4-yl)-4-(4-fluorophenyl)-6-((6-((methylamino)methyl)pyridin-2-yl)methoxy)pyrimidin-2-amine], the IC50 [1, 3] is reported as 108 nM and the IC50 (Adenosine A2A receptor; [4]) is reported as 249 nM and 322 nM and 311 nM.

In the case of `Cc1cc(-c2c(OCCN(C)c3cccc(C(C)(C)C#N)n3)nc(N)nc2-c2ccc(F)cc2)cc(C(F)F)n1` [Example 320], the IC50 ([1]; Homo sapiens) is reported as 141 nM and the IC50 (Adenosine A2A receptor; [2]) is reported as 13 nM and 26 nM and 8.7 nM.

With `Cc1cc(-c2c(OCc3cccc(OC(CO)CO)n3)nc(N)nc2-c2ccc(F)cc2)cc(C(F)F)n1` [Example 420] the IC50 [1, 3] was 55.7 nM and the IC50 (Adenosine A2A receptor; [4]) was 122 nM and 112 nM.

`CCn1c(COc2nc(N)nc(-c3ccc(F)cc3)c2-c2cc(C)nc(C(F)F)c2)nc2ccccc21` [Example 315, 5-(2-(difluoromethyl)-6-methylpyridin-4-yl)-4-((1-ethyl-1H-benzo[d]imidazol-2-yl)methoxy)-6-(4-fluorophenyl)pyrimidin-2-amine] was tested, and the IC50 ([1]; Homo sapiens) was 24.8 nM and the IC50 (Adenosine A2A receptor; [2]) was 1.8 nM and 15 nM.

With `Cc1cc(-c2c(OC3CCn4ccnc43)nc(N)nc2-c2ccc(F)cc2)cc(C(F)F)n1` (centres unmarked) [Example 284, 5-(2-(difluoromethyl)-6-methylpyridin-4-yl)-4-((6,7-dihydro-5H-pyrrolo[1,2-a]imidazol-7-yl)oxy)-6-(4-fluorophenyl)pyrimidin-2-amine] the IC50 ([1]; Homo sapiens) was 392 nM and the IC50 (Adenosine A2A receptor; [2]) was 382 nM and 289 nM.

For `CNc1cccc(COc2nc(N)nc(-c3ccc(F)cc3)c2-c2cc(C)nc(C(F)F)c2)n1` [Example 379, 5-(2-(difluoromethyl)-6-methylpyridin-4-yl)-4-(4-fluorophenyl)-6-((6-(methylamino)pyridin-2-yl)methoxy)pyrimidin-2-amine], the IC50 [1] was 10.7 nM, the IC50 ([1]; Homo sapiens) was 13.1 nM and the IC50 (Adenosine A2A receptor; [2]) was 230 nM and 119 nM and 72 nM.

`Cc1cc(-c2c(OCc3ccnc(OC(CO)CO)n3)nc(N)nc2-c2ccc(F)cc2)cc(C(F)F)n1` [Example 434, 2-((4-(((2-amino-5-(2-(difluoromethyl)-6-methylpyridin-4-yl)-6-(4-fluorophenyl)pyrimidin-4-yl)oxy)methyl)pyrimidin-2-yl)oxy)propane-1,3-diol] was tested, and the IC50 [1, 3] was 411 nM and the IC50 (Adenosine A2A receptor; [4]) was 346 nM and 290 nM.

For `Cc1cc(-c2c(OCc3cccc(C(C)(C)C(=O)O)n3)nc(N)nc2-c2ccc(F)cc2)cc(C(F)(F)F)n1` [Example 385, 2-(6-(((2-amino-6-(4-fluorophenyl)-5-(2-methyl-6-(trifluoromethyl)pyridin-4-yl)pyrimidin-4-yl)oxy)methyl)pyridin-2-yl)-2-methylpropanoic acid], the IC50 ([1]; Homo sapiens) was 1460 nM and the IC50 (Adenosine A2A receptor; [2]) was 2330 nM and 1020 nM.

In the case of `Cc1cc(-c2c(OCc3cccc(CNCC(N)=O)n3)nc(N)nc2-c2ccc(F)cc2)cc(C(F)F)n1` [Example 433, 2-(((6-(((2-amino-5-(2-(difluoromethyl)-6-methylpyridin-4-yl)-6-(4-fluorophenyl)pyrimidin-4-yl)oxy)methyl)pyridin-2-yl)methyl)amino)acetamide], the IC50 [1, 3] is reported as 59 nM and the IC50 (Adenosine A2A receptor; [4]) is reported as 342 nM and 210 nM.

`Cc1cc(-c2c(OCCN3CCCc4cccnc43)nc(N)nc2-c2ccc(F)cc2)cc(C(F)F)n1` [Example 408, 5-(2-(difluoromethyl)-6-methylpyridin-4-yl)-4-(2-(3,4-dihydro-1,8-naphthyridin-1 (2H)-yl)ethoxy)-6-(4-fluorophenyl)pyrimidin-2-amine] was tested, and the IC50 [1, 3] was 37.9 nM and the IC50 (Adenosine A2A receptor; [4]) was 68 nM and 41 nM and 19 nM and 74 nM.

`Cc1cc(-c2c(OCc3nccn3C(F)F)nc(N)nc2-c2ccc(F)cc2)cc(C(F)F)n1` [Example 306, 4-((1-(difluoromethyl)-1H-imidazol-2-yl)methoxy)-5-(2-(difluoromethyl)-6-methylpyridin-4-yl)-6-(4-fluorophenyl)pyrimidin-2-amine] was tested, and the IC50 ([1]; Homo sapiens) was 6.9 nM and the IC50 (Adenosine A2A receptor; [2]) was 26 nM and 23 nM.

In the case of `Cc1cc(-c2c(OCc3nccn3C(C)C)nc(N)nc2-c2ccc(F)cc2)cc(C(F)F)n1` [Example 99, 5-(2-(difluoromethyl)-6-methylpyridin-4-yl)-4-(4-fluorophenyl)-6-((1-isopropyl-1H-imidazol-2-yl)methoxy)pyrimidin-2-amine], the IC50 ([1]; Homo sapiens, values separated by / are repeat determinations) is reported as 47 nM, the IC50 (Adenosine A2A receptor; 293A-A2AR cells, 8 nM CGS, values separated by / are repeat determinations, read-out: cAMP (nM) 0.1% BSA, 8 nM CGS) is reported as 0.064 nM and 0.19 nM and the IC50 (Adenosine A2A receptor; 293A-A2AR cells, 1 uM CGS, values separated by / are repeat determinations, read-out: cAMP (nM) 0.1% BSA, 1 uM CGS) is reported as 32 nM and 22 nM.

For `Cc1cc(-c2c(OCc3ccnc(OCCO)n3)nc(N)nc2-c2ccc(F)cc2)cc(C(F)F)n1` [Example 297, 2-((4-(((2-amino-5-(2-(difluoromethyl)-6-methylpyridin-4-yl)-6-(4-fluorophenyl)pyrimidin-4-yl)oxy)methyl)pyrimidin-2-yl)oxy)ethan-1-ol], the IC50 ([1]; Homo sapiens) was 521 nM and the IC50 (Adenosine A2A receptor; [2]) was 278 nM and 228 nM.

For `Cc1cc(-c2c(OCc3cccc(C4CC4)n3)nc(N)nc2-c2ccc(F)cc2)cc(C(F)F)n1` [Example 326, 4-((6-cyclopropylpyridin-2-yl)methoxy)-5-(2-(difluoromethyl)-6-methylpyridin-4-yl)-6-(4-fluorophenyl)pyrimidin-2-amine], the IC50 ([1]; Homo sapiens) was 57.1 nM and the IC50 (Adenosine A2A receptor; [2]) was 90 nM and 144 nM and 84 nM.

`Cc1cc(-c2c(OCc3cccc(N(CCO)CCO)n3)nc(N)nc2-c2ccc(F)cc2)cc(C(F)F)n1` [Example 402, 2,2′-((6-(((2-amino-5-(2-(difluoromethyl)-6-methylpyridin-4-yl)-6-(4-fluorophenyl)pyrimidin-4-yl)oxy)methyl)pyridin-2-yl)azanediyl)bis(ethan-1-ol)] was tested, and the IC50 [1, 3] was 692 nM and the IC50 (Adenosine A2A receptor; [4]) was 515 nM and 579 nM and 560 nM.

`Cc1cc(-c2c(OCc3cccc(C4(CCO)CCOC4=O)n3)nc(N)nc2-c2ccc(F)cc2)cc(C(F)F)n1` (centres unmarked) [Example 439, 3-(6-(((2-amino-5-(2-(difluoromethyl)-6-methylpyridin-4-yl)-6-(4-fluorophenyl)pyrimidin-4-yl)oxy)methyl)pyridin-2-yl)-3-(2-hydroxyethyl)dihydrofuran-2(3H)-one] was tested, and the IC50 [1, 3] was 252 nM and the IC50 (Adenosine A2A receptor; [4]) was 103 nM.

For `Cc1cc(-c2c(OCc3nc4ccccc4n3C)nc(N)nc2-c2ccc(F)cc2)cc(C(F)F)n1` [Example 314, 5-(2-(difluoromethyl)-6-methylpyridin-4-yl)-4-(4-fluorophenyl)-6-((1-methyl-1H-benzo[d]imidazol-2-yl)methoxy)pyrimidin-2-amine], the IC50 ([1]; Homo sapiens) was 9.8 nM and the IC50 (Adenosine A2A receptor; [2]) was 0.4 nM and 1 nM.

`Cc1cc(-c2c(OCc3cccc(CNCCO)n3)nc(N)nc2-c2ccc(F)cc2)cc(C(F)F)n1` [Example 418, 2-(((6-(((2-amino-5-(2-(difluoromethyl)-6-methylpyridin-4-yl)-6-(4-fluorophenyl)pyrimidin-4-yl)oxy)methyl)pyridin-2-yl)methyl)amino)ethan-1-ol] was tested, and the IC50 [1, 3] was 89.3 nM and the IC50 (Adenosine A2A receptor; [4]) was 191 nM and 177 nM.

With `Cc1cc(-c2c(OCc3nnn(C)n3)nc(N)nc2-c2ccc(F)cc2)cc(C(F)F)n1` [Example 241, 5-(2-(difluoromethyl)-6-methylpyridin-4-yl)-4-(4-fluorophenyl)-6-((2-methyl-2H-tetrazol-5-yl)methoxy)pyrimidin-2-amine] the IC50 ([1]; Homo sapiens) was 221 nM and the IC50 (Adenosine A2A receptor; [2]) was 213 nM.

With `Cc1cc(-c2c(OCc3cccc(C4(C(=O)O)CC4)n3)nc(N)nc2-c2ccc(F)cc2)cc(C(F)F)n1` [Example 391, 1-(6-(((2-amino-5-(2-(difluoromethyl)-6-methylpyridin-4-yl)-6-(4-fluorophenyl)pyrimidin-4-yl)oxy)methyl)pyridin-2-yl)cyclopropane-1-carboxylic acid] the IC50 ([1]; Homo sapiens) was 602 nM and the IC50 (Adenosine A2A receptor; [2]) was 1130 nM and 979 nM.
